From US20110053773A1, “METHODS OF IMPROVING NUTRITIONAL VALUE OF PLANTS” (UNIVERSITY OF TENNESSEE RESEARCH FOUNDATION, priority 2009, published 2011)

Legend:
Format in all cases: in vivo
[1] = tested on: sweet corn variety WH0809; assay: Sugar content of sweet corn kernels (Example 2); settings: for Sugar content Raffanose: treated check 0.51; for Sugar content Maltose: treated check 0.61; for Sugar content Fructose: treated check 1.04; for Sugar content Glucose: treated check 1.91; for Sugar content Sucrose: treated check 10.72
Method: (§1) A field study was conducted at Greenback, TN to investigate POST applications of several herbicide inhibitors of photosynthesis for sweet corn safety and for changes in carbohydrate content in the kernels of sweet corn among treatments. Treatments included bentazon at 1120 and 2240 g ai/ha, linuron at 280 and 560 g ai/ha, metribuzin at 105 and 210 g ai/ha, and bromoxynil at 560 and 1120 g ai/ha. All treatments included a PRE application of a common residual corn herbicide in order to maintain weed free conditions. […] Sweet corn was harvested from the center two rows of each four row plot and weighed in the husk. Eight ears of corn were harvested from each plot and were pooled over replicates for analysis of key carbohydrates which included the sugars sucrose, fructose, glucose, maltose, and raffanose.

[2] = tested on: sweet corn variety WH0809; assay: Sweet corn yield, harvested and weighed in the husk (Example 2); settings: treated check 9758.4
Method: as §1

[3] = tested on: sweet corn variety WH0809; assay: Visual injury of sweet corn after POST herbicide inhibitors of photosynthesis (Example 2)
Method: as §1

[4] = 1120 g ai/ha + COC 1% v/v POST, 1st of 3 Injury columns, rating date not given
[5] = 1120 g ai/ha + COC 1% v/v POST, 2nd of 3 Injury columns (agrees with 14 DAT of b67)
[6] = 1120 g ai/ha + COC 1% v/v POST, 3rd of 3 Injury columns, rating date not given
[7] = 560 g ai/ha + COC 1% v/v POST, 1st of 3 Injury columns, rating date not given
[8] = 560 g ai/ha + COC 1% v/v POST, 2nd of 3 Injury columns (agrees with 14 DAT of b67)
[9] = 560 g ai/ha + COC 1% v/v POST, 3rd of 3 Injury columns, rating date not given

## CC(C)N1C(=O)c2ccccc2NS1(=O)=O [BENTAZON, bentazon]
[1]; 1120 g ai/ha + COC 1% v/v POST
  Sugar content Raffanose: 0.56 mg/g dw
  Sugar content Maltose: 0.96 mg/g dw
  Sugar content Fructose: 1.69 mg/g dw
  Sugar content Glucose: 2.65 mg/g dw
  Sugar content Sucrose: 13.18 mg/g dw
[1]; 2240 g ai/ha + COC 1% v/v POST
  Sugar content Raffanose: 0.84 mg/g dw
  Sugar content Maltose: 1.26 mg/g dw
  Sugar content Fructose: 1.78 mg/g dw
  Sugar content Glucose: 3.41 mg/g dw
  Sugar content Sucrose: 18.67 mg/g dw
[2]; 1120 g ai/ha + COC 1% v/v POST
  YIELD: 10317 kg
[2]; 2240 g ai/ha + COC 1% v/v POST
  YIELD: 10565.6 kg
[3]; [4]
  Injury: 5%
[3]; [5]
  Injury: 17%
[3]; [6]
  Injury: 0%
[3]; 2240 g ai/ha + COC 1% v/v POST, 1st of 3 Injury columns, rating date not given
  Injury: 12%
[3]; 2240 g ai/ha + COC 1% v/v POST, 2nd of 3 Injury columns (agrees with 14 DAT of b67)
  Injury: 10%
[3]; 2240 g ai/ha + COC 1% v/v POST, 3rd of 3 Injury columns, rating date not given
  Injury: 2%

## N#Cc1cc(Br)c(O)c(Br)c1 [BROMOXYNIL, bromoxynil]
[1]; 560 g ai/ha + COC 1% v/v POST
  Sugar content Raffanose: 0.77 mg/g dw
  Sugar content Maltose: 0.88 mg/g dw
  Sugar content Fructose: 1.74 mg/g dw
  Sugar content Glucose: 3.07 mg/g dw
  Sugar content Sucrose: 15.56 mg/g dw
[1]; 1120 g ai/ha + COC 1% v/v POST
  Sugar content Raffanose: 0.54 mg/g dw
  Sugar content Maltose: 0.60 mg/g dw
  Sugar content Fructose: 1.77 mg/g dw
  Sugar content Glucose: 2.70 mg/g dw
  Sugar content Sucrose: 14.50 mg/g dw
[2]; 560 g ai/ha + COC 1% v/v POST
  YIELD: 9436.2 kg
[2]; 1120 g ai/ha + COC 1% v/v POST
  YIELD: 9142.6 kg
[3]; [7]
  Injury: 37%
[3]; [8]
  Injury: 35%
[3]; [9]
  Injury: 27%
[3]; [4]
  Injury: 45%
[3]; [5]
  Injury: 47%
[3]; [6]
  Injury: 35%

## CON(C)C(=O)Nc1ccc(Cl)c(Cl)c1 [LINURON, linuron]
[1]; 280 g ai/ha + COC 1% v/v POST
  Sugar content Raffanose: 0.64 mg/g dw
  Sugar content Maltose: 0.95 mg/g dw
  Sugar content Fructose: 1.86 mg/g dw
  Sugar content Glucose: 3.22 mg/g dw
  Sugar content Sucrose: 12.02 mg/g dw
[1]; 560 g ai/ha + COC 1% v/v POST
  Sugar content Raffanose: 0.48 mg/g dw
  Sugar content Maltose: 0.59 mg/g dw
  Sugar content Fructose: 1.39 mg/g dw
  Sugar content Glucose: 2.33 mg/g dw
  Sugar content Sucrose: 13.30 mg/g dw
[2]; 280 g ai/ha + COC 1% v/v POST
  YIELD: 8062.6 kg
[2]; 560 g ai/ha + COC 1% v/v POST
  YIELD: 9227.9 kg
[3]; 280 g ai/ha + COC 1% v/v POST, 1st of 3 Injury columns, rating date not given
  Injury: 25%
[3]; 280 g ai/ha + COC 1% v/v POST, 2nd of 3 Injury columns (agrees with 14 DAT of b67)
  Injury: 22%
[3]; 280 g ai/ha + COC 1% v/v POST, 3rd of 3 Injury columns, rating date not given
  Injury: 25%
[3]; [7]
  Injury: 38%
[3]; [8]
  Injury: 35%
[3]; [9]
  Injury: 27%

## CSc1nnc(C(C)(C)C)c(=O)n1N [METRIBUZIN, metribuzin]
[1]; 105 g ai/ha + COC 1% v/v POST
  Sugar content Raffanose: 0.36 mg/g dw
  Sugar content Maltose: 0.49 mg/g dw
  Sugar content Fructose: 1.04 mg/g dw
  Sugar content Glucose: 1.79 mg/g dw
  Sugar content Sucrose: 9.35 mg/g dw
[1]; 210 g ai/ha
  fructose increase compared to the untreated check: 115%
  glucose increase compared to the untreated check: 106%
  maltose increase compared to the untreated check: 74%
  raffanose increase compared to the untreated check: 59%
  sucrose increase compared to the untreated check: 103%
[1]; 210 g ai/ha + COC 1% v/v POST
  Sugar content Raffanose: 0.81 mg/g dw
  Sugar content Maltose: 1.06 mg/g dw
  Sugar content Fructose: 2.24 mg/g dw
  Sugar content Glucose: 3.93 mg/g dw
  Sugar content Sucrose: 21.79 mg/g dw
[2]; 105 g ai/ha + COC 1% v/v POST
  YIELD: 10715.4 kg
[2]; 210 g ai/ha + COC 1% v/v POST
  YIELD: 8967.5 kg
[3]; 105 g ai/ha + COC 1% v/v POST, 1st of 3 Injury columns, rating date not given
  Injury: 12%
[3]; 105 g ai/ha + COC 1% v/v POST, 2nd of 3 Injury columns (agrees with 14 DAT of b67)
  Injury: 13%
[3]; 105 g ai/ha + COC 1% v/v POST, 3rd of 3 Injury columns, rating date not given
  Injury: 5%
[3]; 210 g ai/ha + COC 1% v/v POST, 1st of 3 Injury columns, rating date not given
  Injury: 17%
[3]; 210 g ai/ha + COC 1% v/v POST, 2nd of 3 Injury columns (agrees with 14 DAT of b67)
  Injury: 30%
[3]; 210 g ai/ha + COC 1% v/v POST, 3rd of 3 Injury columns, rating date not given
  Injury: 22%
